Where two headings read alike, the source gives them in different places.
Molecular target: T1, chimeric human H3 receptor (Homo sapiens, UniProt Q9Y5N1, E19D)
T1 construct: made in house; host or cells: Sf9 insect cells (baculovirus infection); P2 membrane preparation
Test: Chimeric human H3 receptor GTP binding assay (agonist-stimulated GTP-gamma35S binding, Example 7)
Type: biochemical
Summary of the method: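 IC50 values come from non-linear regression of dose-response curves of filter-bound GTP-gamma^35S, counted by scintillation. Membranes were from infected Sf9 cells carrying receptor plus G-protein subunits, 35 μg/tube, with 10 μM GDP present.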

[1] = "*" in Ki of Table II, assay of Example 7, read-out: Ki
[2] = Table II, assay of Example 7, "*" in Ki, read-out: Ki
[3] = Table II, "*" in Ki, assay of Example 7, read-out: Ki
[4] = assay of Example 7, symbol * in column headed Ki of Table II, read-out: Ki
[5] = assay of Example 7, "*" in Ki of Table II, read-out: Ki

T1 sequence (Q9Y5N1 with tags, fused parts or gaps E19D): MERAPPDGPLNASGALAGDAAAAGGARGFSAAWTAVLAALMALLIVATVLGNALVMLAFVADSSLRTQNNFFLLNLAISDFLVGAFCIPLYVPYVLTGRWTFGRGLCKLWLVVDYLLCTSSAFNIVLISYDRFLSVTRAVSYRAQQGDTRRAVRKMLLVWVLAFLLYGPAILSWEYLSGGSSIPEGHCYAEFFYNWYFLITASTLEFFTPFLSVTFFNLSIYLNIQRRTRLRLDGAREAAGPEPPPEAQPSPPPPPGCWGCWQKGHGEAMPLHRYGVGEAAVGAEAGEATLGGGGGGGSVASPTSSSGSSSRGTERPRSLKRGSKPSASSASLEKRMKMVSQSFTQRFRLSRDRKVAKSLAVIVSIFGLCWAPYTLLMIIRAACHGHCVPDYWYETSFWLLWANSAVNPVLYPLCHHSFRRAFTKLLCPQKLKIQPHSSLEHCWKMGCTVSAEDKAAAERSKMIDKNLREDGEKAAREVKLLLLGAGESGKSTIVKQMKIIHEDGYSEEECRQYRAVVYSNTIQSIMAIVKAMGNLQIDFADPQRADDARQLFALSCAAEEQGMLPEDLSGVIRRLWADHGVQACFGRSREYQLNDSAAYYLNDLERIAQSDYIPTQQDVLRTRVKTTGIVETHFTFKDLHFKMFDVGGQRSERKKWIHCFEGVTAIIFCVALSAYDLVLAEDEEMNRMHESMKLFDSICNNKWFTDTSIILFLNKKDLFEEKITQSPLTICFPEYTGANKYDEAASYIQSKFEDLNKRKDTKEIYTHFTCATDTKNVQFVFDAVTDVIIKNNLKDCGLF

Compound: O=C(N1CCN(C2CCC2)CC1)N1CCC2(CC1)C(=O)N(Cc1ccccc1)c1ccccc12 [Compound 488, 1-benzyl-1′-[(4-cyclobutylpiperazin-1-yl)carbonyl]spiro[indole-3,4′-piperidin]-2(1H)-one]
- Ki [1]: < 1000 nM

Compound: CCN(C(=O)c1ccc(N2CCN(CC(=O)N3CCN(C4CCC4)CC3)CC2)cc1)C1CCCCC1 [Compound 1129, 4-{4-[2-(4-cyclobutylpiperazin-1-yl)-2-oxoethyl]piperazin-1-yl}-N-cyclohexyl-N-ethylbenzamide]
- Ki [2]: < 1000 nM

Compound: O=C(CN1CCN(c2ccc(-c3cccc(C(F)(F)F)c3)cc2)CC1)N1CCN(C2CCC2)CC1 [Compound 589, 1-cyclobutyl-4-({4-[3′-(trifluoromethyl)biphenyl-4-yl]piperazin-1-yl}acetyl)piperazine]
- Ki [3]: < 1000 nM

Compound: COc1ccc(Cl)cc1N1CCN(CC(=O)N2CCN(C3CCC3)CC2)CC1 [Compound 366, 1-(5-chloro-2-methoxyphenyl)-4-[2-(4-cyclobutylpiperazin-1-yl)-2-oxoethyl]piperazine]
- Ki [4]: < 1000 nM

Compound: CCC(C)N1CCN(C(=O)CN2CCN(c3ccccc3C)CC2)CC1 (stereo not shown) [Compound 868, 1-sec-butyl-4-{[4-(2-methylphenyl)piperazin-1-yl]acetyl}piperazine]
- Ki: < 1000 nM

Compound: O=C1OCc2cc(N3CCN(CC(=O)N4CCN(C5CCC5)CC4)CC3)ccc21 [Compound 1156, 5-{4-[2-(4-cyclobutylpiperazin-1-yl)-2-oxoethyl]piperazin-1-yl}-2-benzofuran-1(3H)-one]
- Ki [5]: < 1000 nM

Compound: Cc1ccc(C(=O)NC2CCN(CC(=O)N3CCN(C4CCC4)CC3)C2)cc1C (stereo not shown) [Compound 1232, N-{1-[2-(4-cyclobutylpiperazin-1-yl)-2-oxoethyl]pyrrolidin-3-yl}-3,4-dimethylbenzamide]
- Ki [5]: < 1000 nM

Compound: COc1ccc(OC)c(CC(=O)N2CCN(CC(=O)N3CCN(C4CCC4)CC3)CC2)c1 [Compound 509, 1-cyclobutyl-4-({4-[(2,5-dimethoxyphenyl)acetyl]piperazin-1-yl}acetyl)piperazine]
- Ki [1]: < 1000 nM

Compound: CC(C)NC(=O)c1ccc(N2CCN(CC(=O)N3CCN(C4CCC4)CC3)CC2)nc1 [Compound 1182, 6-{4-[2-(4-cyclobutylpiperazin-1-yl)-2-oxoethyl]piperazin-1-yl}-N-isopropylnicotinamide]
- Ki [5]: < 1000 nM

Compound: COc1cc(N2CCN(CC(=O)N3CCN(C(C)C)CC3)CC2)ccc1Cl [Compound 347, 1-(4-chloro-3-methoxyphenyl)-4-[2-(4-isopropylpiperazin-1-yl)-2-oxoethyl]piperazine]
- Ki [4]: < 1000 nM

Compound: O=C(CN1CCC(F)(c2ccccc2)CC1)N1CCN(C2CCC2)CC1 [Compound 654, 1-cyclobutyl-4-[(4-fluoro-4-phenylpiperidin-1-yl)acetyl]piperazine]
- Ki [3]: < 1000 nM

Compound: CC1CCCN1C(=O)c1cccc(N2CCN(CC(=O)N3CCN(C4CCC4)CC3)CC2)c1 (stereo not shown) [Compound 640, 1-cyclobutyl-4-[(4-{3-[(2-methylpyrrolidin-1-yl)carbonyl]phenyl}piperazin-1-yl)acetyl]piperazine]
- Ki [3]: < 1000 nM

Compound: O=C(Cc1ccccc1Oc1ccccc1)N1CCN(CC(=O)N2CCN(C3CCC3)CC2)CC1 [Compound 541, 1-cyclobutyl-4-({4-[(2-phenoxyphenyl)acetyl]piperazin-1-yl}acetyl)piperazine]
- Ki [1]: < 1000 nM

Compound: CC(=O)c1ccc(N2CCN(CC(=O)N3CCN(C4CCC4)CC3)[C@@H](C)C2)cc1 [Compound 307, 1-(4-{4-[2-(4-cyclobutylpiperazin-1-yl)-2-oxoethyl]-3-methylpiperazin-1-yl}phenyl)ethanone]
- Ki [4]: < 1000 nM

Compound: Cc1cc(C)cc(-c2cnc(N3CCN(CC(=O)N4CCN(C5CCC5)CC4)CC3)cn2)c1 [Compound 929, 2-{4-[2-(4-cyclobutylpiperazin-1-yl)-2-oxoethyl]piperazin-1-yl}-5-(3,5-dimethylphenyl)pyrazine]
- Ki (Table II "Ki", symbol "*": Ki in the assay of Example 7, read-out: Ki): < 1000 nM

Compound: Cc1cccc(C)c1-c1cnc(N2CCN(CC(=O)N3CCN(C4CCC4)CC3)CC2)cn1 [Compound 972, 2-{4-[2-(4-cyclobutylpiperazin-1-yl)-2-oxoethyl]piperazin-1-yl}-5-(2,6-dimethylphenyl)pyrazine]
- Ki [2]: < 1000 nM

Source: patent US7851474B2, “Dipiperazinyl ketones and related analogues” (Neurogen Corporation, priority 2005, dated 2010)
